Experimental data as given in ChEMBL document CHEMBL1201862, “PubChem BioAssay data set” (2004).
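1) Cells in 96-well plates. 2) Compound, 48 h, 5 concentrations. 3) Linear interpolation between surrounding doses. 4) Unreached endpoint = highest concentration. GI50 marks 50% less growth.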 The source made the active and inactive calls. No stated cut-off is given here; in the data, active = GI50 up to about 1.1 µM and inactive = higher.

Assays:
Test in all cases: inhibition of tumour cell growth, NCI panel, 48 h
HT-29 = test system: HT-29
MOLT-4 = test system: MOLT-4
IGROV-1 = test system: IGROV-1
UO-31 = test system: UO-31
SK-OV-3 = test system: SK-OV-3
SF-268 = test system: SF-268
SK-MEL-2 = test system: SK-MEL-2
KM12 = test system: KM12
SK-MEL-28 = test system: SK-MEL-28
NCI-H522 = test system: NCI-H522
OVCAR-8 = test system: OVCAR-8
COLO 205 = test system: COLO 205
HOP-62 = test system: HOP-62
CAKI-1 = test system: CAKI-1
OVCAR-3 = test system: OVCAR-3
LOX IMVI = test system: LOX IMVI
SK-MEL-5 = test system: SK-MEL-5

Measured: GI50

CC1(C2COC(=O)C2)SCCCS1 (stereo not given)
inactive: HT-29 > 100 µM | MOLT-4 > 100 µM | IGROV-1 > 100 µM | UO-31 14.2 µM | SK-OV-3 53.8 µM | SF-268 > 100 µM | SK-MEL-2 > 100 µM | KM12 98.4 µM | SK-MEL-28 > 100 µM | NCI-H522 2.79 µM | OVCAR-8 > 100 µM | COLO 205 > 100 µM | HOP-62 > 100 µM | CAKI-1 > 100 µM | OVCAR-3 > 100 µM | LOX IMVI > 100 µM | SK-MEL-5 > 100 µM

N#C/C(=C\c1ccccc1F)C(=O)c1ccccc1
inactive: HT-29 > 100 µM | MOLT-4 > 100 µM | IGROV-1 > 100 µM | UO-31 > 100 µM | SK-OV-3 > 100 µM | SF-268 > 100 µM | SK-MEL-2 > 100 µM | KM12 > 100 µM | SK-MEL-28 > 100 µM | NCI-H522 > 100 µM | OVCAR-8 > 100 µM | COLO 205 > 100 µM | HOP-62 > 100 µM | CAKI-1 > 100 µM | OVCAR-3 > 100 µM | LOX IMVI > 100 µM | SK-MEL-5 > 100 µM

CCCCCCCCCCCC(=O)OCCOCCOCCOCCOCCOCc1ccc(OC)cc1
inactive: HT-29 > 100 µM | MOLT-4 73.6 µM | IGROV-1 88.5 µM | UO-31 > 100 µM | SK-OV-3 > 100 µM | SF-268 > 100 µM | SK-MEL-2 > 100 µM | KM12 > 100 µM | SK-MEL-28 > 100 µM | NCI-H522 > 100 µM | OVCAR-8 > 100 µM | COLO 205 > 100 µM | HOP-62 > 100 µM | CAKI-1 > 100 µM | OVCAR-3 > 100 µM | LOX IMVI > 100 µM | SK-MEL-5 > 100 µM

CN1CC[C@]2(C)c3ccc(O)cc3CC3CCCC1C32C (stereo not given in full)
inactive: HT-29 > 100 µM | MOLT-4 > 100 µM | IGROV-1 > 100 µM | UO-31 92.3 µM | SK-OV-3 > 100 µM | SF-268 > 100 µM | SK-MEL-2 > 100 µM | KM12 > 100 µM | SK-MEL-28 > 100 µM | NCI-H522 > 100 µM | OVCAR-8 > 100 µM | COLO 205 > 100 µM | HOP-62 > 100 µM | CAKI-1 > 100 µM | OVCAR-3 > 100 µM | LOX IMVI > 100 µM | SK-MEL-5 > 100 µM

C#CCOCn1cnc2c(Cl)ncnc21
inactive: HT-29 > 100 µM | MOLT-4 67.5 µM | IGROV-1 > 100 µM | UO-31 > 100 µM | SK-OV-3 > 100 µM | SF-268 > 100 µM | SK-MEL-2 > 100 µM | KM12 > 100 µM | SK-MEL-28 > 100 µM | NCI-H522 86.1 µM | OVCAR-8 > 100 µM | COLO 205 > 100 µM | HOP-62 > 100 µM | CAKI-1 > 100 µM | OVCAR-3 > 100 µM | LOX IMVI 52.6 µM | SK-MEL-5 > 100 µM
